One molecule from publication PMC10574094, “Discovery of a SHP2 Degrader with In Vivo Anti-Tumor Activity” (Molecules, 2023) can be followed below.

Each structure is given as a SMILES string. Entries after “also recorded” stand apart in the source; their conditions may differ.

Series [1] concerns SHP1, PTP1B, TC-PTP, LYP, PRL1, PRL2. Put plainly: Western blot of other PTPs in HEK293 cells (degrader selectivity). Format: cell-based, human. Particulars: 1 μM P9, 16 h. The protocol:
(§1) HEK293, SKBR3, U2OS, MCF7 and A549 cells were grown in DMEM supplemented with 10% FBS, penicillin (50 units/mL), and streptomycin (50 μg/mL) in a 37 °C incubator containing 5% CO2. KYSE-520 and H358 cells were grown in RPMI-1640 supplemented with 10% FBS, penicillin (50 units/mL), and streptomycin (50 μg/mL) in a 37 °C incubator containing 5% CO2. For western-blot analysis, protein samples were separated by SDS-PAGE, transferred to nitrocellulose membranes, and incubated overnight at 4 °C with corresponding primary antibodies diluted in 5% BSA in phosphate-buffered saline Tween (PBST). SuperSignal™ West Pico PLUS (PI34580; Thermo Scientific) was used to visualize the antibodies in the bioanalytical imaging system (Azure Biosystems c500). Anti-p-ERK1/2 (T202/Y204) (4370), and anti-ERK1/2 (4696) were purchased from Cell Signaling Technology. Anti-GAPDH (sc-365062), anti-SHP2 (sc-7384), anti-SHP1 (sc-7289), and anti-Actin (sc-8432) antibodies were purchased from Santa Cruz. Anti-PTP1B (ab244207) antibody was purchased from Abcam. For colony formation assay, a total of approximately 200–500 cells were seeded to each well in a 12-well plate. The wells were then treated with DMSO, compound P9 and 3 at 37 °C for 3 weeks, gently washed, and stained with crystal violet.

In another series the test system is PTP1B and SHP1. The experiment in a line: Western blot of PTP1B and SHP1 in KYSE-520 cells. Format: cell-based. Particulars: 16 h. As to the method:
as §1
(In general: In western blotting, separated proteins are transferred to a membrane and probed.)

The next series deals with KYSE-520 cells. The experiment in a line: CCK-8 cell proliferation assay. Format: cell-based. Particulars: Homo sapiens, 168 h; KYSE-520, CCK-8, 7 days; read-out: growth inhibition IC50. The protocol: The cell proliferation inhibition EC50 was determined by CCK-8 assay. KYSE-520 cells were seeded at 5 × 10^3 cells/well in 96 well plates. After 24 h, P9 was added to the medium starting at 80 μM in a 2-fold dilution rate of 0.16 μM. After 7 days, 10 μL of CCK-8 test solution (APExBIO Technology, Houston, TX, USA) was added into each well and incubated for 2 h at 37 °C. The optical density (OD) at 450 nm was measured with a microplate reader (Molecular Device, Sunnyvale, CA, USA). The cell viability rate at different concentrations of P9 treatment was determined with Prism, version 9.5.1 (GraphPad, San Diego, CA, USA).
A general note: Tetrazolium dyes change colour on reduction, which living cells bring about.

Series [2] in a line: Tolerability and body weight in xenograft study. Particulars: mice, 25 mg/kg or 50 mg/kg daily IP. In kind it is in vivo. The protocol:
Experiments on mice were carried out in accordance with the regulations of the Institutional Animal Care and Use Committees at Purdue University. All mice were housed under pathogen-free conditions in the animal facility and received autoclaved water and food. Eight to ten weeks-old Nude mice were used in the study.
For the xenograft tumor study, KYSE-520 cells were suspended in PBS and a total of 3 × 10^6 cells (100 μL) were subcutaneously implanted into both the left and right flank using a 27-gauge needle. Tumor volume was calculated using the formula V = (W^2 × L)/2 for caliper measurements. Once the tumor volume reaches 200 mm^3, daily intraperitoneal injection of either control, 25 mg/kg or 50 mg/kg of compound P9 was performed. Mice were sacrificed after injection for 18 days, and tumors were collected for biochemical analysis.

The test system of another series is pERK1/2. The experiment in a line: pERK1/2 level in KYSE-520 tumor homogenates (Western blot). Format: in vivo, mice. Particulars: whole tumor homogenates, 50 mg/kg P9 IP. The protocol: as §1, with “For colony formation assay, a total of approximately 200–500 cells were seeded to each well in a 12-well plate. The wells were then treated with DMSO, compound P9 and 3 at 37 °C for 3 weeks, gently washed, and stained with crystal violet.” left out
(§2) For the xenograft tumor study, KYSE-520 cells were suspended in PBS and a total of 3 × 10^6 cells (100 μL) were subcutaneously implanted into both the left and right flank using a 27-gauge needle. Tumor volume was calculated using the formula V = (W^2 × L)/2 for caliper measurements. […]

Series [3] addresses T1, SHP2 (Homo sapiens, UniProt Q06124).
T1 sequence (Q06124 1-593): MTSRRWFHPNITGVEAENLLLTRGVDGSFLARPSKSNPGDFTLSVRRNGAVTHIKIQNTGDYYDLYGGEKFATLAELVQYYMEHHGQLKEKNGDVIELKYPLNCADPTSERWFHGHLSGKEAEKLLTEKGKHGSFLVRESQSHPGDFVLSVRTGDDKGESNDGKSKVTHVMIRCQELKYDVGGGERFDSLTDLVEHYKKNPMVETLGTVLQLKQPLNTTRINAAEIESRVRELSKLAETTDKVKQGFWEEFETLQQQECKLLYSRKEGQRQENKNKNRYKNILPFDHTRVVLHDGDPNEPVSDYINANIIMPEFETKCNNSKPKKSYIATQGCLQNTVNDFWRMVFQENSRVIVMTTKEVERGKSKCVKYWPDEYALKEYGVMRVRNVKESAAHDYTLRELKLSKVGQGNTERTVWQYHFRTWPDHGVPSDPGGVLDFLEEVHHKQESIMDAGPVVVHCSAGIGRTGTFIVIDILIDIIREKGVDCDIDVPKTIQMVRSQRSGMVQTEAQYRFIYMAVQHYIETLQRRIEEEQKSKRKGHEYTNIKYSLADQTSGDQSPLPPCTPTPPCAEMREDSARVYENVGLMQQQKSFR
The experiment in a line: SHP2 degradation by Western blotting in HEK293 cells. In kind it is cell-based. More on the design: endogenous in cells; host or cells: HEK293. Particulars: HEK293 cells.

Series [4] deals with T1, SHP2. The experiment in a line: SHP2 degradation by Western blotting in KYSE-520 cells. Format: cell-based. Set-up: endogenous in cells; host or cells: KYSE-520. The note with it: 16 h. The protocol: as §1
Series [5] deals with T1, SHP2. The experiment in a line: SHP2 level in KYSE-520 tumor homogenates (Western blot). Set-up: from tissue; host or cells: KYSE-520 xenograft tumour from nude mice, whole tumour homogenate. The note with it: whole tumor homogenates, 50 mg/kg P9 IP. Format: in vivo, mice. The protocol:
as §1, with “For colony formation assay, a total of approximately 200–500 cells were seeded to each well in a 12-well plate. The wells were then treated with DMSO, compound P9 and 3 at 37 °C for 3 weeks, gently washed, and stained with crystal violet.” left out
as §2

As to `Cc1ncsc1-c1ccc([C@H](C)NC(=O)[C@@H]2C[C@@H](O)CN2C(=O)[C@@H](NC(=O)CCCCCCCCCN2CCN(C(=O)CCCCCC3(CN)CCN(c4cnc(Sc5cccc(Cl)c5Cl)c(N)n4)CC3)CC2)C(C)(C)C)cc1` [P9, (2S,4R)-1-((S)-2-(10-(4-(6-(1-(6-amino-5-((2,3-dichlorophenyl)thio)pyrazin-2-yl)-4-(aminomethyl)piperidin-4-yl)hexanoyl)piperazin-1-yl)decanamido)-3,3-dimethylbutanoyl)-4-hydroxy-N-((S)-1-(4-(4-methylthiazol-5-yl)phenyl)ethyl)pyrrolidine-2-carboxamide], the “protein level of other PTPs” value in series [1] is “none of the other PTPs including SHP1, PTP1B, TC-PTP, LYP, PRL1, and PRL2, were affected”. The “protein levels of PTP1B and SHP1” value with PTP1B and SHP1 is on record as “not affected”. Moreover, the IC50 in the series with KYSE-520 cells turned out to be 640 ± 130 nM. In addition, the tolerability result in series [2] was “well tolerated”. In addition, the animal body weight entry in series [2] (during treatment) is reported as “preserved; also recorded: no significant effect on mice body weight”. Besides, the “pERK1/2 level, % of the control group” value with pERK1/2 is recorded as 24 ± 12%. Moreover, on SHP2 [3], the “time at which maximal SHP2 depletion was achieved” value came out at 16 h. Besides, the DC50 is 35.2 ± 1.5 nM on SHP2 [3] (16 h of treatment, read-out: DC50 (concentration required for 50% degradation of protein)) and approximately 130 nM at SHP2 [4]. Also, the hook effect entry on SHP2 [3] (tested concentration range) is listed as “no significant hook effect”. Moreover, the SHP2 protein degraded entry at SHP2 [3] (within 6 h of P9 treatment) was “Over 90%”. For the same molecule, at SHP2 [5], the “SHP2 level, % of the control group” value was found to be 34 ± 18%.

As usually defined, the IC50 is the midpoint of a concentration-inhibition curve.
